{"source": "patent US20150105433A1", "about": "“TREATING VIRAL INFECTIONS HAVING VIRAL RNAs TRANSLATED BY A NON-IRES MEDIATED MECHANISM” (THE UAB RESEARCH FOUNDATION, priority 2012, published 2015)", "key": {"[1]": {"tested_on": "RPS25 mRNA", "assay": "RPS25 siRNA knockdown, northern analysis of RPS25 mRNA level", "assay_type": "cell-based, human", "conditions": "Huh7.13 cells, transient siRNA transfection, 72 hours, RPS25 mRNA normalized to β-actin mRNA, relative to control", "procedure": "(§1) The day before transfection, 5×10^4 HeLa cells were seeded into 24-well plates. Once the cells reached 90% confluency, transfection of dual luciferase reporters was done using Lipofectamine 2000 (Invitrogen) according to the manufacturer's recommendations using 0.4 μg DNA per well. Cells were harvested for luciferase analysis after 24 hours. Double stranded RPS25 siRNAs, 5′-GGACUUAUCAAACUGGUUUtt-3′ (SEQ ID NO:3) and 5′-AAACCAGUUUGAUAAGUCCtt-3′ (SEQ ID NO:4) (Ambion, siRNA ID #142220), were used to knock down RPS25 in Huh7 cells. The Dicector™ DS (IDT; Coralville, Iowa) scrambled negative control duplex was used as a negative control. siRNA complexes were prepared in opti-MEM (Invitrogen) with 5 μl siPORT NeoFX transfection agent to a final siRNA concentration of 0.375 μM according to the manufacturer's specifications. siRNA complexes were plated and overlaid with 2×10^5 Huh7.13 cells in antibiotic-free media. The transfection media was replaced with complete media after 24 hours.\nTotal RNA was harvested with TRIzol (Invitrogen) according to the manufacturer's protocol from shRNA lentiviral transduced cells. […]"}, "[2]": {"tested_on": "HCV (JFH1, genotype 2a)", "assay": "HCV amplification in RPS25 knockdown Huh7.13 cells, quantitative western analysis for NS5A", "assay_type": "cell-based, hepatitis C virus", "conditions": "Huh7.13 cells infected with HCV at low MOI, 72 hours after infection, versus non-targeting control siRNA", "procedure": "as §1\nThe HCV infection was carried out by inoculating Huh7.13 cells with 1 ml of culture medium from the HCV producer cell line Huh7 JFH1 HCV (genotype 2a). […]\nCells were lysed in E1 lysis buffer with 0.1% SDS. […] Signals were detected using flororchrome-conjugated secondary antibody for quantitative western blotting using the Odyssey scanner and software (LI-COR; Lincoln, Nebr.)."}}, "data": [{"substance": "siRNA that targets RPS25: Double stranded RPS25 siRNAs 5′-GGACUUAUCAAACUGGUUUtt-3′ (SEQ ID NO:3) and 5′-AAACCAGUUUGAUAAGUCCtt-3′ (SEQ ID NO:4), Ambion (chain 1 GGACUUAUCAAACUGGUUUTT; chain 2 AAACCAGUUUGAUAAGUCCTT; chemistry not given here)", "values": [{"measurement": "RPS25 knockdown effectiveness (RPS25 mRNA level)", "setting": "[1]", "value": "over 95%"}, {"measurement": "HCV NS5A protein expression (HCV amplification)", "setting": "[2]", "value": "not detected"}]}]}
